Experimental data from patent US20130005720A1, “PHARMACEUTICAL COMPOSITION FOR TREATING CANCER AND APPLICATIONS THEREOF” (Academia Sinica, priority 2011, published 2013).

Tests used:
[1] = test system: d(TTAGGG)4 (HT24), G4 structure of human telomere; test: CD thermal melting curve (265 nm) of HT24 G4 structure; type: binding
Method: (§1) All oligonucleotides were purchased from Bio Basic Inc. and used without further purification, including the single strand sequence derived from telomere of human chromosome, d(TTAGGG)4 (HT24) (SEQ ID NO: 1). Solutions of 10 mM Tris-HCl (pH 7.5) and its mixed solutions with KCl were mixed with each DNA sample and heated to 95° C. for 10 min first, cooled slowly to room temperature, and then stored for 48 h at 4° C. before use.
(§2) J-815 spectropolarimeter (Jasco, Japan) with a 2 nm bandwidth at a 50 nm/min scan speed and a 0.2 nm step resolution was used to obtain CD spectra, and the following data was provided as an average of 10 scan results. The CD spectra were measured by monitoring the G4 structures under N2 over the range of 210 nm to 350 nm, and the thermal melting curves, as a function of temperature, were obtained by monitoring the CD intensity at 265 nm. Three independently scans were recorded for each sample. The melting temperature (Tm) was measured from the first differentiation of the melting curve.
The BMVC-8C3O of the present invention can not only induce the formation of G4 structures, but also stabilize G4 structures. FIGS. 3A and 3B show the CD spectra of HT24 and its complex with 5 eq. BMVC-8C3O in 5 mM K^+ solution at 25° C. and 95° C., respectively. […] BMVC-8C3O in 5 mM or 150 mM K^+ solution at 265 nm, as a function graph of temperature. After adding 5 eq. BMVC-8C3O at 37° C.

[2] = test system: d(TTAGGG)4 (HT24), G4 structure of human telomere; test: CD and 1H NMR spectra: conversion of G4 structure conformation of HT24 in K+ or Na+ solution; type: binding; conditions: for formation of G4 structures and conversion of G4 structures of human telomeres from nonparallel to parallel forms: K+ solution, summary statement; for CD spectral change before and after annealing: 5 μM HT24, 1 eq. compound
Method: as §1
It is well-known that the linear parallel G4 structures, such as a propeller form, give a positive band at around 265 nm and a negative band at around 240 nm, while the anti-parallel G4 structures, such as a basket or chair form, show two positive bands at around 295 nm and 240 nm and a negative band at around 265 nm. In addition, the hybrid type G4 structures (3+1, including 3 parallel and 1 anti-parallel G4 structures) give a positive CD band at around 290 nm and a positive shoulder band at around 265 nm. The anti-parallel and hybrid type are both so-called “non-parallel” G4 structures. These spectral features are mainly attributed to the specific guanine stacking in various G4 structures.
as §2
5 μM HT24 and 1 eq. BMVC-8C3O (the equivalence ratio of HT24:BMVC-8C30 is 1:1) were used to detect whether BMVC-8C3O could convert the G4 structure conformation of HT24 from non-parallel to parallel.
The CD spectra of the HT24 and its complexes with 1 eq. BMVC-8C3O mixed in a 150 mM K^+ solution or in a 150 mM Na^+ solution were measured right after the mixing step under room temperature, as shown in FIGS. 2A and 2B (+BMVC-8C3O×1). Another set of spectra were obtained after these samples were annealed, i.e. heated at 95° C., and then gradually cooled down to room temperature (+BMVC-8C3O×1 anneal). […] These spectral features are consistent with the spectral changes of d[G3(T2AG3)3] (HT21) in K^+ or Na^+ solution upon the addition of 40% PEG (see Xue et al., 2007). That is to say, the peak at 265 nm (parallel G4 structure) increases and the peak at 290 nm (non-parallel G4 structure) decreases. This is, BMVC-8C3O and 40% PEG can converse the G4 structures from the non-parallel to the parallel.
BMVC-8C3O at 37° C., as a function of time.
In addition, 0.1 mM HT24 was mixed with 5 eq. BMVC-8C3O and dissolved in a H2O/D2O (90%/10%) solution containing 10 mM tris-HCl (pH 7.5) and 150 mM KCl to prepare samples for NMR (control sample was without BMVC-8C3O). Then the imino protons in the chemical shift range of 9-14 ppm were measured on a Bruker AVIII 800 MHz spectrometer using a pulsed-gradient spin-echo sequence with a selective refocusing pulse, and the chemical shift was measured relative to a D2O solution of DSS as an external reference. […] The NMR spectra show significant changes after adding 5 eq.
When 1 eq. […] However, when the concentration of BMVC-8C3O is increasing, the necessity of the annealing step decreases. For example, 5 eq. BMVC-8C3O induces spectra changes of the complex of HT24 and BMVC-8C3O in 150 mM K^+ solution at 37° C. (converting from non-parallel to parallel), and the annealing step is not necessary (see FIG. 2C).

[3] = test system: MRC-5 normal human lung fibroblasts; test: Long-term cell proliferation curve, MRC-5 normal cells; type: cell-based; conditions: long-term treated with 1.0 μM
Method: (§3) CL1-0 lung cancer cells and MRC-5 normal human lung fibroblasts were used in the following experiments, wherein CL1-0 cells were cultured in RPMI-1640 medium containing 10% FBS (fetal bovine serum) and 1% antibiotics (including penicillin and streptomycin), and MRC-5 cells were cultured in MEM medium containing 10% FBS and 1% antibiotics.
(§4) When these cells were subcultured, culture medium containing 1.0 μM BMVC-8C3O (1% DMSO for the control) was used to separate these cells into 5×10^5 cells/petri dish having a diameter of 6 cm. After 2 or 3 days, these cells were trypsinized and counted, and subcultured again with the same density and method. Cells were subcultured repeatedly until the total cell number was less than 5×10^5.
(§5) FIGS. 4A and 4B show the cell proliferation curves of CL1-0 cancer cells and MRC-5 normal cells that long-term treated with 1.0 μM BMVC-8C3O. From FIG. 4A, it is obvious that the proliferation of CL1-0 cancer cells is slowed from around day 10, and stopped at around day 20.

[4] = test system: d(TTAGGG)4 (HT24), single strand sequence derived from telomere of human chromosome; test: CD spectra: induction of G4 structure formation of HT24 under a salt-deficient condition; type: binding; conditions: 20 μM HT24, salt-deficient condition, room temperature, HT24:BMVC-8C3O 1:0 to 1:10
Method: as §1
First, circular dichroism spectroscopy (CD spectra) was used to examine whether BMVC-8C3O could induce the formation of G4 structure of human telomere, HT24, under a salt-deficient condition (Chang et al., 2007; Bugaut et al., 2008; Giraldo et al., 1994). […]
J-815 spectropolarimeter (Jasco, Japan) with a 2 nm bandwidth at a 50 nm/min scan speed and a 0.2 nm step resolution was used to obtain CD spectra, and the following data was provided as an average of 10 scan results. The CD spectra were measured by monitoring the G4 structures under N2 over the range of 210 nm to 350 nm, and the thermal melting curves, as a function of temperature, were obtained by monitoring the CD intensity at 265 nm. Three independently scans were recorded for each sample. The melting temperature (Tm) was measured from the first differentiation of the melting curve. […]

CL1-0 lung cancer cells = test: Long-term cell proliferation curve, CL1-0 cancer cells; type: cell-based; conditions: long-term treated with 1.0 μM
Method: as §3, §4, §5

Compound | increase of the melting temperature of the G4 structures of human telomeres ([1]; summary statement, conditions not given at the place) | formation of G4 structures and conversion of G4 structures of human telomeres from nonparallel to parallel forms [2] | enhancement of melting temperature (Tm) of HT24 ([1]; 5 eq. compound, 37° C. 24 hours, 5 mM K+ solution) | melting temperature (Tm) of HT24 complex ([1]; 5 eq. compound, 37° C. 24 hours, 5 mM K+ solution, HT24 alone approximately 41° C.) | effect on proliferation of MRC-5 normal cells [3] | induction of G4 structure formation of HT24 (CD spectra) [4] | day at which proliferation of CL1-0 cancer cells is stopped (CL1-0 lung cancer cells) | day from which proliferation of CL1-0 cancer cells is slowed (CL1-0 lung cancer cells) | CD spectral change before and after annealing ([2]; 150 mM K+ solution) | CD spectral change before and after annealing ([2]; 150 mM Na+ solution) | structural change of HT24 (imino proton 1H NMR spectra) ([2]; 0.1 mM HT24, 5 eq. compound, 150 mM KCl, 2 h and 12 h after adding) | conversion of G4 structure conformation of HT24 from non-parallel to parallel (CD spectra) ([2]; 5 eq. compound, 150 mM K+ solution, 37° C., without annealing)
C[n+]1ccc(C=Cc2ccc3[nH]c4ccc(C=Cc5cc[n+](C)cc5)cc4c3c2)cc1.[I-].[I-] [BMVC, 3,6-bis(1-methyl-4-vinylpyridinium)carbazole diiodide, reference compound] | approximately 20 °C | cannot be achieved |  |  |  |  |  |  |  |  |  | 
C[n+]1ccc(C=Cc2ccc3c(c2)c2cc(C=Cc4cc[n+](C)cc4)ccc2n3CCOCCOCCOCC[N+]2(C)CCCCC2)cc1.[I-].[I-].[I-] [BMVC-8C3O, 3,6-Bis(1-methyl-4-vinylpyridium iodide)-9-(1-(1-methyl-piperidinium iodide)-3,6,9-trioxaundecane) carbazole] |  | can induce the formation of G4 structures and convert the G4 structures of human telomeres from nonparallel to parallel forms | about 50 °C | > 90 °C | does not significantly affect | can induce G4 formation under a salt-deficient condition | ~20 days | ~10 days | significant spectral changes | only CD intensity changes are observed | can induce the structural change of HT24 | can convert the conformation of G4 structures from non-parallel to parallel
